The text below walks through data of US8008324B2, “Indole derivatives and their use as medicament” (AEterna Zentaris GmbH, priority 2000, dated 2011).

SMILES strings stand for the structures. Some results are limits rather than exact numbers.

The test system of data set [1] is human cervical carcinoma cell line KB/HeLa (ATCC CCL17). Description: XTT proliferation test, KB/HeLa. Type of data set: cell-based. As to conditions: eight substance concentrations. The procedure: (§1) In a proliferation test, the antiproliferative activity of the substance D-69429 was examined using established tumor cell lines. In the test used, the cellular dehydrogenation activity is determined, which makes it possible to determine the vitality of the cell and, indirectly, the cell count. The cell lines used are the human cervical carcinoma cell line KB/HeLa (ATCC CCL17), the murine lymphocyte a leukaemia L1210 (ATCC CCL-219), the human breast adenocarcinoma line MCF7 (ATCC HTB22) and the ovary adenocarcinoma line SKOV-3 (ATCC HTB77). These are established cell lines which are very well characterized and were obtained from ATCC and cultured.
(§2) The adherently growing tumor cell lines HeLa/KB, SKOV-3 and MCF7 and the L1210 leukaemia line, which grows in suspension, were cultivated under standard conditions in an incubator with gas inlet at 37° C., 5% CO2 and 95% atmospheric humidity. […]
(§3) For the XTT assay, 1 mg/ml of XTT (sodium 3′-[1-(phenylaminocarbonyl)-3,4-tetrazolium]-bis(4-methoxy-6-nitro)benzenesulfonic acid) is dissolved in RPMI-1640 medium without Phenol Red. […] The cell plates are then incubated in the incubator with gas inlet for a further 3 h, and the optical density (OD490nm) is determined in a photometer.
(§4) Using the OD490nm obtained, the inhibition in percent relative to the control is calculated. […]
Background: Formazan colour is commonly taken as a measure of viable cells.

Data set [2] has as its system human breast adenocarcinoma line MCF7 (ATCC HTB22). Description: XTT proliferation test, MCF7. Type of data set: cell-based. The procedure:
as §1, §2, §3, §4

The subject of data set [3] is ovary adenocarcinoma line SKOV-3 (ATCC HTB77). Description: XTT proliferation test, SKOV-3. As to conditions: SKOV-3, eight substance concentrations. Type of data set: cell-based, human. As to the method:
as §1, §2, §3, §4

For data set [4], the system named is murine lymphocyte leukaemia L1210 (ATCC CCL-219). The experiment in a line: XTT proliferation test, L1210. As to conditions: L-1210, eight substance concentrations. Type of data set: cell-based. The procedure: as §1, §2, §3, §4

As usually defined, the melting point is the temperature of the solid-liquid transition. As a reminder, the inhibition is the relative decrease from the control value, in per cent.

Compound `Cc1ccc2cc(NC(=O)C(=O)c3cn(Cc4ccc(Cl)cc4)c4ccccc34)ccc2n1` [Example D-69429, N-(2-methyl-6-quinolyl)-[1-(4-chlorobenzyl)indole-3-yl]glyoxylamide] yielded a melting point of 182 to 185 °C. Further, the antiproliferative action entry in data set [1] is on record as “highly potent antiproliferative action”. In data set [2] (MCF7, at 3.16 μg/ml, test period 48 h), this compound yielded an inhibition at 3.16 µg/mL of 18%. In data set [2] (MCF7, test period 48 h, regression analysis, read-out: antiproliferative activity (stated as >3.16)), the IC50 is > 3.16 µg/mL. Moreover, the antiproliferative action entry in data set [3] is given as “highly potent antiproliferative action”. In data set [4], the antiproliferative action result is on record as “highly potent antiproliferative action”.
